Results: patent publication US11427548B2 (Arvinas Operations, Inc., priority 2015, dated 2022)
Where two headings read alike, the source gives them in different places.

Molecular target: T1, Androgen Receptor (Homo sapiens, UniProt P10275)
T1 construct: endogenous in cells; host or cells: VCaP cells
T1 sequence (P10275 1-920): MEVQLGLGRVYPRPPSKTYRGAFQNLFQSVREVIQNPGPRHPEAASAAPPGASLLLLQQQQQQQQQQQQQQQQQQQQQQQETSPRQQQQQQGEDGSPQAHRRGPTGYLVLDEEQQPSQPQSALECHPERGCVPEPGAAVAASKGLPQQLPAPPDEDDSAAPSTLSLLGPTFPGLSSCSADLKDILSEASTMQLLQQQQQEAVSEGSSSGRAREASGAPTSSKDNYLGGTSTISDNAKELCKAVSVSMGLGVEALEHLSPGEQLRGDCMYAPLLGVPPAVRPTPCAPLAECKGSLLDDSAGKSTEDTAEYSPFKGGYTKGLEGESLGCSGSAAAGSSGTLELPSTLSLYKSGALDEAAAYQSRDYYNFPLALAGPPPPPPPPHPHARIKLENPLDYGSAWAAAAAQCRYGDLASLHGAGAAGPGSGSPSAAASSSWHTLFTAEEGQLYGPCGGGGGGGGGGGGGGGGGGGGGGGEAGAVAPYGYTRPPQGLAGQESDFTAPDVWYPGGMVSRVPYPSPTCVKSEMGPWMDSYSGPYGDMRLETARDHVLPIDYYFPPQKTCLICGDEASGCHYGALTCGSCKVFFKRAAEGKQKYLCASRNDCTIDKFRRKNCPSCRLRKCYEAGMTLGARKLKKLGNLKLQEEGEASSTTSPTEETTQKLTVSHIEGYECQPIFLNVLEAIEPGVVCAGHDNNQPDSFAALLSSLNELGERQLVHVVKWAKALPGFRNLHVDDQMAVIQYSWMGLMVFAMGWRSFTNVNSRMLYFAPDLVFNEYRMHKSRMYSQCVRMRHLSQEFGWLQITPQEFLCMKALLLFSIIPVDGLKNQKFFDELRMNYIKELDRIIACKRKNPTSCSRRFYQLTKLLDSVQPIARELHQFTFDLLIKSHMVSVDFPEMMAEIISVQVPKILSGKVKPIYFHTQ
Assay: Androgen Receptor ELISA assay (PathScan AR ELISA) in VCaP cells: AR degradation, Dmax and DC50
Format: cell-based
Summary of the method: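 VCaP cells in phenol red-free RPMI with 5% charcoal-stripped FBS were grown at least 3 days, then given compound as 7 half-log doses in 0.1% DMSO with 0.1 nM R1881 for 24 h. Lysates went into a sandwich AR ELISA with TMB read at 450 nm.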

[1] = VCaP cells; Table 36; read-out: VCaP DC50
[2] = read-out: VCaP DC50; concentration that caused 50% Androgen Receptor degradation, VCaP cells (Table 32)

SMILES | DC50 [1] [µM] | Dmax (VCaP, read-out: VCaP Dmax (%)) [%] | DC50 [2] [µM] | further results
Cc1ncsc1-c1ccc([C@H](C)NC(=O)[C@@H]2C[C@@H](O)CN2C(=O)[C@@H](NC(=O)COCCCCOc2ccc(C(=O)N[C@H]3C(C)(C)[C@H](Oc4ccc(C#N)c(Cl)c4)C3(C)C)cc2)C(C)(C)C)cc1 [Example 167, (2S,4R)-1-[(2S)-3,3-dimethyl-2-{2-[4-(4-{[trans-3-(3-chloro-4-cyanophenoxy)-2,2,4,4-tetramethylcyclobutyl]carbamoyl}phenoxy)butoxy]acetamido}butanoyl]-4-hydroxy-N-[(1S)-1-[4-(4-methyl-1,3-thiazol-5-yl)phenyl]ethyl]pyrrolidine-2-carboxamide] | – | – | – | Dmax (VCaP, highest percentage of Androgen Receptor degradation observed, VCaP cells (Table 32); read-out: VCaP Dmax (%)): > 71%; DC50 (concentration that caused 50% Androgen Receptor degradation, VCaP cells (Table 32); read-out: VCaP DC50): < 0.05 µM
CC(=O)O[C@@H]1C[C@@H](C(=O)N[C@@H](C)c2ccc(-c3scnc3C)cc2)N(C(=O)[C@H](C(C)C)N2Cc3cc(OCCN4CCN(c5ccc(C(=O)N[C@H]6C(C)(C)[C@H](Oc7ccc(C#N)c(Cl)c7)C6(C)C)cn5)CC4)ccc3C2=O)C1 [Example 852, (3R,5S)-1-((S)-2-(5-(2-(4-(5-(((1r,3r)-3-(3-chloro-4-cyanophenoxy)-2,2,4,4-tetramethylcyclobutyl)carbamoyl)pyridin-2-yl)piperazin-1-yl)ethoxy)-1-oxoisoindolin-2-yl)-3-methylbutanoyl)-5-(((S)-1-(4-(4-methylthiazol-5-yl)phenyl)ethyl)carbamoyl)pyrrolidin-3-yl acetate] | < 0.05 | 51 to 70 | – | –
C[C@H](NC(=O)[C@@H]1C[C@@H](O)CN1C(=O)[C@@H](NC(=O)COCCCCOc1ccc(-c2ccc(N3C(=S)N(c4ccc(C#N)c(Cl)c4)C(=O)C3(C)C)cc2)cc1)C(C)(C)C)c1ccc(-c2cnco2)cc1 [Example 132, (2S,4R)-1-[(2S)-2-{2-[4-(4-{4-[3-(3-chloro-4-cyanophenyl)-5,5-dimethyl-4-oxo-2-sulfanylideneimidazolidin-1-yl]phenyl}phenoxy)butoxy]acetamido}-3,3-dimethylbutanoyl]-4-hydroxy-N-[(1S)-1-[4-(1,3-oxazol-5-yl)phenyl]ethyl]pyrrolidine-2-carboxamide] | – | > 71 | < 0.05 | –
Cc1ncsc1-c1ccc([C@H](C)NC(=O)[C@@H]2C[C@@H](O)CN2C(=O)[C@@H](NC(=O)CO[C@H]2C[C@@H](N3CCN(c4ccc(C(=O)N[C@H]5C(C)(C)[C@H](Oc6ccc(C#N)c(Cl)c6)C5(C)C)cn4)CC3)C2)C(C)(C)C)cc1 [Example 845, N-((1r,3R)-3-(3-chloro-4-cyanophenoxy)-2,2,4,4-tetramethylcyclobutyl)-6-(4-((1R,3S)-3-(2-(((S)-1-((2S,4R)-4-hydroxy-2-(((S)-1-(4-(4-methylthiazol-5-yl)phenyl)ethyl)carbamoyl)pyrrolidin-1-yl)-3,3-dimethyl-1-oxobutan-2-yl)amino)-2-oxoethoxy)cyclobutyl)piperazin-1-yl)nicotinamide] | < 0.05 | – | – | Dmax (VCaP, VCaP cells; Table 36; read-out: VCaP Dmax (%)): > 71%
CC(C)(C)[C@H](NC(=O)COCCCCOc1ccc(-c2ccc(N3C(=S)N(c4ccc(C#N)c(C(F)(F)F)c4)C(=O)C3(C)C)cc2)cc1)C(=O)N1C[C@H](O)C[C@H]1C(=O)NCc1ccc(-c2ccn[nH]2)cc1 [Example 122, (2S,4R)-1-[(2S)-2-(2-{4-[4-(4-{3-[4-cyano-3-(trifluoromethyl)phenyl]-5,5-dimethyl-4-oxo-2-sulfanylideneimidazolidin-1-yl}phenyl)phenoxy]butoxy}acetamido)-3,3-dimethylbutanoyl]-4-hydroxy-N-{[4-(1H-pyrazol-5-yl)phenyl]methyl}pyrrolidine-2-carboxamide] | – | > 71 | < 0.05 | –
